{"source": "patent US20020094522A1", "about": "“Means and methods for monitoring non-nucleoside reverse transcriptase inhibitor antiretroviral therapy and guiding therapeutic decisions in the treatment of HIV/AIDS” (priority 2000, published 2002)", "key": {"[1]": {"test_system": "RTV-302 (patient sample 97-302; K103N, P225H)", "assay": "Phenotypic susceptibility assay, RTV-302", "assay_type": "cell-based, HIV-1", "details": "RTV-302, patient-derived", "protocol": "(§1) Transfections were performed using a calcium-phosphate precipitation procedure. […] Cell lysates were assayed for luciferase activity (FIG. 3).\n(§2) The drug inhibition curves are shown in (FIG. 3).\nA resistance test vector was constructed as described in example 1 from a patient sample designated as 97-302. This patient had been treated with d4T, indinavir and DMP-266 for a period of approximately 10 months. Isolation of viral RNA and RT/PCR was used to generate a patient derived segment that comprised viral sequences coding for all of PR and aa 1-313 of RT. The patient derived segment was inserted into a indicator gene viral vector to generate a resistance test vector designated RTV-302. RTV-302 was tested using a phenotypic susceptibility assay to determine accurately and quantitatively the level of susceptibility to a panel of anti-retroviral drugs. […] An IC50 was determined for each drug tested. Susceptibility of the patient virus to each drug was examined and compared to known patterns of susceptibility."}, "[2]": {"test_system": "RTV-209 (patient sample 97-209)", "assay": "Phenotypic susceptibility assay, RTV-209", "assay_type": "cell-based, HIV-1", "details": "RTV-209, patient-derived pool", "protocol": "as §1, §2\nA resistance test vector was constructed as described in Example 1 from a patient sample designated 97-209. This patient had been previously treated with AZT, ddI, d4T and 3TC (NRTIs), indinavir (a PRIs) and adefovir. Isolation of viral RNA and RT/PCR was used to generate a patient derived segment that comprised viral sequences coding for all of PR and aa 1-313 of RT. The PDS was inserted into an indicator gene viral vector to generate resistance test vector designated RTV-209. RTV-209 was then tested in a phenotypic assay to determine accurately and quantitatively the level of susceptibility to a panel of anti-retroviral drugs. […] An IC50 was determined for the resistance test vector pool for each drug tested. […]. The pattern of susceptibility to all of the drugs tested was examined and compared to known patterns of susceptibility."}, "[3]": {"test_system": "RTV-644 (patient sample 97-644 / 98-644)", "assay": "Phenotypic susceptibility assay, RTV-644", "assay_type": "cell-based, HIV-1", "details": "for susceptibility/resistance compared to reference virus: RTV-644, Example 5; for fold decrease in susceptibility (IC50): RTV-644, patient-derived pool", "text": "(§3) The resistance test vectors containing a functional luciferase gene cassette were constructed and host cells were transfected with the resistance test vector DNA. The resistant test vectors contained patient-derived reverse transcriptase and protease sequences that were either susceptible or resistant to the antiretroviral agents, such as nucleoside reverse transcriptase inhibitors, non-nucleoside reverse transcriptase inhibitors and protease inhibitors. The resistance test vector viral particles produced by transfecting the resistance test vector DNA into host cells, either in the presence or absence of protease inhibitors, were used to infect target host cells grown either in the absence of NRTI or NNRTI or in the presence of increasing concentrations of the drug. The amount of luciferase activity produced in infected target host cells in the presence of drug was compared to the amount of luciferase produced in infected target host cells in the absence of drug. Drug resistance was measured as the amount of drug required to inhibit by 50% the luciferase activity detected in the absence of drug (inhibitory concentration 50%, IC50). The IC50 values were determined by plotting percent drug inhibition vs. log10 drug concentration.\n(§4) Host cells were seeded in 10-cm-diameter dishes and were transfected several days after plating with resistance test vector plasmid DNA and the envelope expression vector. Transfections were performed using a calcium-phosphate precipitation procedure. The cell culture media containing the DNA precipitate was replaced with fresh medium, from one to 24 hours, after transfection. Cell culture media containing resistance test vector viral particles was harvested one to four days after transfection and was passed through a […] filter before being stored at −80° C. HIV capsid protein (p24) levels in the harvested cell culture media were determined by an EIA method as described by the manufacturer (SIAC; Frederick, Md.). Before infection, target cells (293 and 293/T) were plated in cell culture media. Control infections were performed using cell culture media from mock transfections (no DNA) or transfections containing the resistance test vector plasmid DNA without the envelope expression plasmid. One to three or more days after infection the media was removed and cell lysis buffer (Promega) was added to each well. […] The inhibitory effect of the drug was determined using the following equation: […]\nIsolation of viral RNA and RT/PCR was used to generate a patient derived segment that comprised viral sequences coding for all of PR and amino acids 1-313 of RT. […] An IC50 was determined for each drug tested. […]"}, "[4]": {"test_system": "Y181C-RTV (HIV reverse transcriptase Y181C)", "assay": "Phenotypic susceptibility assay, Y181C-RTV", "assay_type": "cell-based, HIV-1", "text": "as §3, with “The amount of luciferase activity produced in infected target host cells in the presence of drug was compared to the amount of luciferase produced in infected target host cells in the absence of drug. Drug resistance was measured as the amount of drug required to inhibit by 50% the luciferase activity detected in the absence of drug (inhibitory concentration 50%, IC50).” left out\n(§5) Host cells were seeded in 10-cm-diameter dishes and were transfected several days after plating with resistance test vector plasmid DNA and the envelope expression vector. […] HIV capsid protein (p24) levels in the harvested cell culture media were determined by an EIA method as described by the manufacturer (SIAC; Frederick, Md.). […] The inhibitory effect of the drug was determined using the following equation: […]"}, "[5]": {"test_system": "Y188H-RTV (HIV reverse transcriptase Y188H)", "text": "as §3, §4\nwhere RLUluc [drug] is the relative light unit of luciferase activity in infected cells in the presence of drug and RLUluc is the Relative Light Unit of luciferase activity in infected cells in the absence of drug. IC50 values were obtained from the sigmoidal curves that were generated from the data by plotting the percent inhibition of luciferase activity vs. the log10 drug concentration."}, "[6]": {"test_system": "L100I-K103N-RTV", "assay": "Phenotypic susceptibility assay, L100I-K103N-RTV", "assay_type": "cell-based, HIV-1", "details": "site directed mutant", "protocol": "(§6) The resistance test vectors containing a functional luciferase gene cassette were constructed and host cells were transfected with the resistance test vector DNA. The resistant test vectors contained patient-derived reverse transcriptase and protease sequences that were either susceptible or resistant to the antiretroviral agents, such as nucleoside reverse transcriptase inhibitors, non-nucleoside reverse transcriptase inhibitors and protease inhibitors. […] The IC50 values were determined by plotting percent drug inhibition vs. log10 drug concentration.\nas §5\n(§7) The mutations Y188L, L100I and K103N were introduced alone and in combinationn into resistance test vectors using the mega-primer method for site-directed mutagenesis (Sakar and Sommar, Ibid.). […] We determined the pattern of phenotypic susceptibility to the NNRTIs, delavirdine, nevlrapine and efavirenz, in all 6 vectors."}, "[7]": {"test_system": "Tyr181Cys (Y181C) mutation variant", "details": "Y181C variant selected during nevirapine monotherapy; cited from earlier work"}, "[8]": {"test_system": "K103N-Y188L-RTV", "assay": "Phenotypic susceptibility assay, K103N-Y188L-RTV", "assay_type": "cell-based, HIV-1", "details": "site directed mutant", "protocol": "as §6, §5, §7"}, "[9]": {"test_system": "L100I-K103N-Y188L-RTV", "assay": "Phenotypic susceptibility assay, L100I-K103N-Y188L-RTV", "assay_type": "cell-based, HIV-1", "details": "site directed mutant", "protocol": "as §6, §5, §7"}}, "data": [{"smiles": "CC(C)Nc1cccnc1N1CCN(C(=O)c2cc3cc(NS(C)(=O)=O)ccc3[nH]2)CC1", "note": "[delavirdine]", "values": [{"measurement": "change in susceptibility", "setting": "[1]", "value": "modest decrease in delavirdine susceptibility"}, {"measurement": "fold decrease in susceptibility (IC50)", "setting": "[2]", "value": 75, "unit": "fold"}, {"measurement": "susceptibility/resistance compared to reference virus", "setting": "[3]", "value": "little or no resistance to delavirdine"}, {"measurement": "fold decrease in susceptibility (IC50)", "setting": "[3]", "value": 2.5, "unit": "fold"}]}, {"smiles": "O=C1Nc2ccc(Cl)cc2[C@@](C#CC2CC2)(C(F)(F)F)O1", "note": "[efavirenz]", "values": [{"measurement": "fold loss of susceptibility compared to wild type control RTV", "setting": "[4]; Y181C-RTV, site directed mutant", "value": 4, "unit": "fold"}, {"measurement": "fold loss of susceptibility compared to wild type control RTV", "setting": "[4]; {}", "value": 3, "unit": "fold"}]}, {"smiles": "Cc1ccnc2c1NC(=O)c1cccnc1N2C1CC1", "note": "[nevirapine]", "values": [{"measurement": "fold loss of susceptibility compared to wild type control RTV", "setting": "[5]", "value": 3.5, "unit": "fold"}, {"measurement": "change in susceptibility", "setting": "[1]", "value": "significant decrease in nevirapine susceptibility"}, {"measurement": "fold loss of susceptibility compared to wild type control RTV", "setting": "[6]", "value": 70, "unit": "fold"}, {"measurement": "reduction in sensitivity", "setting": "[7]", "value": 100, "unit": "fold"}, {"measurement": "fold decrease in susceptibility (IC50)", "setting": "[2]", "value": "greater than 800 fold"}, {"measurement": "fold loss of susceptibility compared to wild type control RTV", "setting": "[8]", "value": "greater than 800 fold"}, {"measurement": "susceptibility/resistance compared to reference virus", "setting": "[3]", "value": "resistant to nevirapine"}, {"measurement": "fold decrease in susceptibility (IC50)", "setting": "[3]", "value": 600, "unit": "fold"}, {"measurement": "fold loss of susceptibility compared to wild type control RTV", "setting": "[9]", "value": "greater than 800 fold"}]}]}
